26 compounds from patent US12570662B2, “Substituted pyrrolo[1,2-b]pyridazines as bifunctional degraders of interleukin-1 receptor-associated kinases” (Nurix Therapeutics, Inc., priority 2021, dated 2026) can be followed below.

In this assay the target is T1, IRAK4 (Homo sapiens, UniProt Q9NWZ3).
T1 construct: C-terminal HiBiT-tagged Jurkat cells (polyclonal cell line or clone 8D5); endogenous in cells; host or cells: Jurkat cells (polyclonal cell line or clone 8D5), HiBiT-tagged
T1 sequence (Q9NWZ3 1-460): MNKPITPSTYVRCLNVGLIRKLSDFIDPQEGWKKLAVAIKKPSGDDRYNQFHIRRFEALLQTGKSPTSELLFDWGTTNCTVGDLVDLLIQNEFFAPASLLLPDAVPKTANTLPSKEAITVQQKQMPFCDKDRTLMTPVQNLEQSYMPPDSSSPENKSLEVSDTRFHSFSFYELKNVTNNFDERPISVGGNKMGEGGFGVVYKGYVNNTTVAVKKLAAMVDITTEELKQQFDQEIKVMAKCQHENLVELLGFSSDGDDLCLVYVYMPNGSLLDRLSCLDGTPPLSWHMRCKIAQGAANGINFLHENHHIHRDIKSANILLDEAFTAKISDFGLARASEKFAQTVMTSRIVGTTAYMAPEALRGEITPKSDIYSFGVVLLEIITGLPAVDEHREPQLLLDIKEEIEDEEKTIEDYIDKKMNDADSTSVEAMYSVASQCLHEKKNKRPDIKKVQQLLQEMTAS
Put plainly: IRAK4 Degradation HiBit Assay. In kind it is cell-based. To be noted: C-terminal HiBiT-tagged Jurkat cells, 4 hrs incubation; for DC50: % IRAK4 remaining, four-parameter fit (IC50 used as DC50); for Dmax: from fit of % IRAK4 remaining, read-out: Dmax. The procedure, abridged:
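Jurkat cells carrying C-terminal HiBiT-tagged IRAK4 (polyclonal or clone 8D5) exposed to compound, 10 μM–0.1 nM final over 11 points, for 4 h at 32 °C. Remaining IRAK4 measured by lytic HiBiT/LgBiT luminescence relative to DMSO. DC50 and Dmax taken from four-parameter variable-slope fits.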

For `CC(C)Nc1cc(-c2ccc3cc(C#N)cnn23)ncc1-c1nnc(N2CC3CCC(C2)N3CC2CCN(c3ccc([C@@H]4CCC(=O)NC4=O)cc3)CC2)s1` (single isomer, unassigned) [Example 121], it took 73 nM to reach half-maximal degradation (DC50) and the Dmax stood at 88%.

Regarding `CC(C)Nc1cc(-c2ccc3cc(C#N)cnn23)ncc1-c1nnc(N2CC3CCC(C2)N3CC2CCN(c3ccc([C@@H]4CCC(=O)NC4=O)cn3)CC2)s1` (single isomer, unassigned) [Example 122], half-maximal degradation (DC50) was put at 58 nM and the Dmax is 105%.

With `N#Cc1cnn2c(-c3cc(NC4CC4)c(-c4nnc(N5CC6CCC(C5)N6CC5CCN(c6ccc([C@@H]7CCC(=O)NC7=O)cc6)CC5)s4)cn3)ccc2c1` (single isomer, unassigned) [Example 123], the DC50 came to 80 nM and the Dmax was 96%.

Turning to `N#Cc1cnn2c(-c3cc(N[C@@H]4CCOC4)c(-c4nnc(N5CC6CCC(C5)N6CC5CCN(c6ccc([C@@H]7CCC(=O)NC7=O)cn6)CC5)s4)cn3)ccc2c1` (single isomer, unassigned) [Example 124], the 50% degradation concentration (DC50) came to 8 nM and the Dmax is 110%.

Regarding `N#Cc1cnn2c(-c3cc(NC4CC4)c(-c4nnc(N5CC6CCC(C5)N6CC5CCN(c6ccc([C@@H]7CCC(=O)NC7=O)cn6)CC5)s4)cn3)ccc2c1` (single isomer, unassigned) [Example 125], the DC50 stood at 30 nM and the Dmax was determined as 106%.

As for `CCNc1cc(-c2ccc3cc(C#N)cnn23)ncc1-c1nnc(N2CC3CCC(C2)N3CC2CCN(c3ccc([C@@H]4CCC(=O)NC4=O)cc3)CC2)s1` (single isomer, unassigned) [Example 126], the 50% degradation concentration (DC50) was 43 nM and the Dmax worked out at 108%.

Turning to `N#Cc1cnn2c(-c3cc(N[C@@H]4CCOC4)c(-c4nnc(N5CCN(CC6CCN(c7ccc([C@@H]8CCC(=O)NC8=O)cn7)CC6)CC5)s4)cn3)ccc2c1` (single isomer, unassigned) [Example 127], the DC50 came to 9 nM and the Dmax stood at 113%.

`N#CCNc1cc(-c2ccc3cc(C#N)cnn23)ncc1-c1nnc(N2CC3CCC(C2)N3CC2CCN(c3ccc([C@@H]4CCC(=O)NC4=O)cc3)CC2)s1` (single isomer, unassigned) [Example 128]: it took 6 nM to reach half-maximal degradation (DC50) and the Dmax came to 111%.

As to `C[C@H](C#N)Nc1cc(-c2ccc3cc(C#N)cnn23)ncc1-c1nnc(N2CCN(CC3CCN(c4ccc([C@@H]5CCC(=O)NC5=O)cn4)CC3)CC2)s1` (single isomer, unassigned) [Example 129], the DC50 stood at 5 nM and the Dmax was determined as 113%.

In the case of `N#Cc1cnn2c(-c3cc(N[C@H]4CCOC4)c(-c4nnc(N5CCN(CC6CCN(c7ccc([C@@H]8CCC(=O)NC8=O)cn7)CC6)CC5)s4)cn3)ccc2c1` (single isomer, unassigned) [Example 130], the DC50 came to 22 nM and the Dmax worked out at 112%.

Take `N#Cc1cnn2c(-c3cc(N[C@@H]4CCOC4)c(-c4nnc(N5CC6CCC(C5)N6CC5CCN(c6ccc([C@@H]7CCC(=O)NC7=O)cc6)CC5)s4)cn3)ccc2c1` (single isomer, unassigned) [Example 131]: it took 21 nM to reach half-maximal degradation (DC50) and the Dmax is 110%.

With `N#CCNc1cc(-c2ccc3cc(C#N)cnn23)ncc1-c1nnc(N2CCN(CC3CCN(c4ccc([C@@H]5CCC(=O)NC5=O)cn4)CC3)CC2)s1` (single isomer, unassigned) [Example 132], it took 13 nM to reach half-maximal degradation (DC50) and the Dmax was 111%.

In the case of `N#CCNc1cc(-c2ccc3cc(C#N)cnn23)ncc1-c1nnc(N2CC3CCC(C2)N3CC2CCN(c3ccc([C@@H]4CCC(=O)NC4=O)cn3)CC2)s1` (single isomer, unassigned) [Example 133], the DC50 is 13 nM and the Dmax is 110%.

`N#Cc1cnn2c(-c3cc(NC4(C#N)CC4)c(-c4nnc(N5CC6CCC(C5)N6CC5CCN(c6ccc([C@@H]7CCC(=O)NC7=O)cn6)CC5)s4)cn3)ccc2c1` (single isomer, unassigned) [Example 134]: half-maximal degradation (DC50) was put at 20 nM and the Dmax was 111%.

For `C[C@H](C#N)Nc1cc(-c2ccc3cc(C#N)cnn23)ncc1-c1nnc(N2CC3CCC(C2)N3CC2CCN(c3ccc([C@@H]4CCC(=O)NC4=O)cn3)CC2)s1` (single isomer, unassigned) [Example 135], the DC50 was found to be 5 nM and the Dmax is 108%.

On to `N#Cc1cnn2c(-c3cc(Nc4cnoc4)c(-c4nnc(N5CC6CCC(C5)N6CC5CCN(c6ccc([C@@H]7CCC(=O)NC7=O)cn6)CC5)s4)cn3)ccc2c1` (single isomer, unassigned) [Example 136], for which the 50% degradation concentration (DC50) was determined as 25 nM and the Dmax came to 113%.

Take `N#Cc1cnn2c(-c3cc(N[C@@H]4CCOC4)c(-c4nnc(N5CCN(CC6CCN(c7ccc([C@H]8CCC(=O)NC8=O)cn7)CC6)CC5)s4)cn3)ccc2c1` (single isomer, unassigned) [Example 137]: it took 104 nM to reach half-maximal degradation (DC50) and the Dmax is 88%.

For `C[C@H](C#N)Nc1cc(-c2ccc3cc(C#N)cnn23)ncc1-c1nnc(N2CC3CCC(C2)N3CC2CCN(c3ccc([C@H]4CCC(=O)NC4=O)cn3)CC2)s1` (single isomer, unassigned) [Example 142], the 50% degradation concentration (DC50) amounted to 12 nM and the Dmax came out at 96%.

As for `C[C@@H](C#N)Nc1cc(-c2ccc3cc(C#N)cnn23)ncc1-c1nnc(N2CC3CCC(C2)N3CC2CCN(c3ccc([C@H]4CCC(=O)NC4=O)cn3)CC2)s1` (single isomer, unassigned) [Example 143], it took 72 nM to reach half-maximal degradation (DC50) and the Dmax came to 99%.

As for `N#Cc1cnn2c(-c3cc(N[C@H]4CCOC4)c(-c4nnc(N5CCN(CC6CCN(c7ccc([C@H]8CCC(=O)NC8=O)cn7)CC6)CC5)s4)cn3)ccc2c1` (single isomer, unassigned) [Example 144], the DC50 was 166 nM and the Dmax was 87%.

For `C[C@@H](C#N)Nc1cc(-c2ccc3cc(C#N)cnn23)ncc1-c1nnc(N2CC3CCC(C2)N3CC2CCN(c3ccc([C@@H]4CCC(=O)NC4=O)cn3)CC2)s1` (single isomer, unassigned) [Example 145], the half-maximal degradation concentration (DC50) was 22 nM and the Dmax is 113%.

Consider `N#Cc1cnn2c(-c3cc(NC4CCOCC4)c(-c4nnc(N5CCN(CC6CCN(c7ccc(N8CCC(=O)NC8=O)c(F)c7)CC6)CC5)s4)cn3)ccc2c1` [Example 8, 7-(5-{5-[4-({1-[4-(2,4-dioxo-1,3-diazinan-1-yl)-3-fluorophenyl]piperidin-4-yl}methyl)piperazin-1-yl]-1,3,4-thiadiazol-2-yl}-4-[(oxan-4-yl)amino]pyridin-2-yl)pyrrolo[1,2-b]pyridazine-3-carbonitrile], for which the DC50 was found to be 29 nM and the Dmax is 110%.

Consider `N#Cc1cnn2c(-c3cc(NC4CCOCC4)c(-c4nnc(N5CCN(CC6CCN(c7ccc(N8CCC(=O)NC8=O)cn7)CC6)CC5)s4)cn3)ccc2c1` [Example 28, 7-(5-{5-[4-({1-[5-(2,4-dioxo-1,3-diazinan-1-yl)pyridin-2-yl]piperidin-4-yl}methyl)piperazin-1-yl]-1,3,4-thiadiazol-2-yl}-4-[(oxan-4-yl)amino]pyridin-2-yl)pyrrolo[1,2-b]pyridazine-3-carbonitrile], for which the DC50 is 15 nM and the Dmax turned out to be 107%.

Consider `N#Cc1cnn2c(-c3cc(NC4CCOCC4)c(-c4nnc(N5CCN(CC6CCN(c7ccc(N8CCC(=O)NC8=O)cc7)CC6)CC5)s4)cn3)ccc2c1` [Example 60, 7-(5-{5-[4-({1-[4-(2,4-dioxo-1,3-diazinan-1-yl)phenyl]piperidin-4-yl}methyl)piperazin-1-yl]-1,3,4-thiadiazol-2-yl}-4-[(oxan-4-yl)amino]pyridin-2-yl)pyrrolo[1,2-b]pyridazine-3-carbonitrile], for which the DC50 amounted to 16 nM and the Dmax stood at 86%.

In the case of `N#Cc1cnn2c(-c3cc(NC4CCOCC4)c(-c4nnc(N5CCN(CC6CCN(C(=O)c7ccc(F)c(N8CCC(=O)NC8=O)c7)CC6)CC5)s4)cn3)ccc2c1` [Example 62, 7-(5-{5-[4-({1-[3-(2,4-dioxo-1,3-diazinan-1-yl)-4-fluorobenzoyl]piperidin-4-yl}methyl)piperazin-1-yl]-1,3,4-thiadiazol-2-yl}-4-[(oxan-4-yl)amino]pyridin-2-yl)pyrrolo[1,2-b]pyridazine-3-carbonitrile], half-maximal degradation (DC50) was put at 12 nM and the Dmax came out at 41%.

On to `N#Cc1cnn2c(-c3cc(NC4CCOCC4)c(-c4nnc(C56CCC(C(=O)N7CCc8cc(N9CCC(=O)NC9=O)ccc8C7)(CC5)CC6)s4)cn3)ccc2c1` [Example 63, 7-[5-(5-{4-[6-(2,4-dioxo-1,3-diazinan-1-yl)-1,2,3,4-tetrahydroisoquinoline-2-carbonyl]bicyclo[2.2.2]octan-1-yl}-1,3,4-thiadiazol-2-yl)-4-[(oxan-4-yl)amino]pyridin-2-yl]pyrrolo[1,2-b]pyridazine-3-carbonitrile], for which the 50% degradation concentration (DC50) worked out at 29 nM and the Dmax came out at 95%.
